Measured values taken from article PMC9908614 (Frontiers in Microbiology, 2023).

How the values were obtained:
EphH (Rv3338) [1] = target: T1, EphH (Rv3338) (Mycobacterium tuberculosis, UniProt O53388); type: biochemical
EphH (Rv3338) [2] = target: T1, EphH (Rv3338); assay: biochemical; conditions: read-out: rEphH
[3] = target: T2, sEH (human recombinant sEH) (Homo sapiens, UniProt P34913); assay: fluorescence hydrolysis assay, Michaelis-Menten (Km); type: biochemical; conditions: cited from earlier work
T2 construct: gene EPHX2
T2 sequence (P34913 1-555): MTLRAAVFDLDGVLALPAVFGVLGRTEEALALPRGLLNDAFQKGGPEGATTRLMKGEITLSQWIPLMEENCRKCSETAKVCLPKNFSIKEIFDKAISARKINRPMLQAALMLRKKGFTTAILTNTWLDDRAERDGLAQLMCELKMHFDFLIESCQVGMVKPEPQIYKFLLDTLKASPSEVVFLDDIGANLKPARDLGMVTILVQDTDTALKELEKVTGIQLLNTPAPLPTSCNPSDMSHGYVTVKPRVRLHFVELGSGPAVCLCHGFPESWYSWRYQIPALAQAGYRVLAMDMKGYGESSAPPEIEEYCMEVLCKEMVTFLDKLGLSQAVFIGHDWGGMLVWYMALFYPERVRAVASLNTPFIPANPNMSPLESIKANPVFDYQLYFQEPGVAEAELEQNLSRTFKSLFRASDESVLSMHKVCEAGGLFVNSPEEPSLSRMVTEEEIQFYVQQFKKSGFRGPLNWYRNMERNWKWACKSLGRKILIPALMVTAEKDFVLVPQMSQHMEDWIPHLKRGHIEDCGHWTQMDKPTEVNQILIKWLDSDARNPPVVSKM

[4] = test system: COc1ccc2cc(C(C#N)OC(=O)CC3OC3c3ccccc3)ccc2c1; assay: purified protein

T1 sequence (O53388 whole entry): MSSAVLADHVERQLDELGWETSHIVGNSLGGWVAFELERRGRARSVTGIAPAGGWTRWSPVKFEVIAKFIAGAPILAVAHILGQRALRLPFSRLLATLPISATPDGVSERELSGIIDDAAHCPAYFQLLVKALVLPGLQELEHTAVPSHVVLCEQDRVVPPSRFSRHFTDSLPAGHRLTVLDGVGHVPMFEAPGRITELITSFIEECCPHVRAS

## c1ccc(C2CO2)cc1 (racemic) [styrene oxide]
EphH (Rv3338) [1]
  colorimetric Red assay (NaIO4/adrenaline) with purified rEphH: EphH activity was also determined with another EH substrate, styrene oxide

## O=C(O)CCCCCCCCCCCNC(=O)NC12CC3CC(CC(C3)C1)C2 [AUDA, 12-(3-adamantane-1-yl-ureido)-dodecanoic acid]
EphH (Rv3338) [2]
  IC50: 9.4 ± 0.5 nM

## COc1ccc2cc(C(C#N)OC(=O)CC3OC3c3ccccc3)ccc2c1 (stereo not drawn) [PHOME, (3-phenyl-oxiranyl)-acetic acid cyano-(6-methoxynaphthalen-2-yl)-methyl ester]
[3]
  Km: 26.2 µM

## EphH (Rv3338) (Mycobacterium tuberculosis H37Rv)
[4]
  Km: 21.03 µM
  Vmax: 1.027 µmol/min
  kcat/Km: 870000 M⁻¹ s⁻¹
